Laboratory results taken from US20260262643A1, “HERBICIDAL BENZOXAZINES” (FMC CORPORATION, priority 2022, published 2026).

Key:
foxtail, giant [1] = test: Test C preemergence; assay type: in vivo, Setaria faberi
Description: (§1) Seeds of plant species selected from barnyardgrass (Echinochloa crusgalli), blackgrass (Alopecurus myosuroides), corn (Zea mays), foxtail, giant (giant foxtail, Setaria faberi), green foxtail (Setaria viridis), goosegrass (Eleusine indica), kochia (Bassia scoparia), oat, wild (wild oat, Avena fatua), pigweed, palmer (palmer amaranth, palmer pigweed, Amaranthus palmeri), Pigweed, Redroot (redroot pigweed, Amaranthus retroflexus), ragweed (common ragweed, Ambrosia artemisiifolia), ryegrass, Italian ([…] ryegrass, Lolium multiflorum), soybean (Glycine max), and wheat (Triticum aestivum) were planted into a blend of loam soil and sand and treated preemergence with a directed soil spray using test chemicals formulated in a non-phytotoxic solvent mixture which included a surfactant. At the same time, plants selected from these crops and weed species and also galium (catchweed bedstraw, Galium aparine) and horseweed (Erigeron canadensis) were planted in pots containing the same blend of loam soil and sand and treated with postemergence applications of test chemicals formulated in the same manner. Plants ranged in height from 2 to 10 cm and were in the one- to two-leaf stage for the postemergence treatment. Treated plants and untreated controls were maintained in a greenhouse for 10 days, after which time all treated plants were compared to untreated controls and visually evaluated for injury. Plant response ratings, summarized in Table C, are based on a 0 to 100 scale where 0 is no effect and 100 is complete control. A dash (-) response means no test result.

ragweed [2] = test: Test C postemergence; assay type: in vivo, Ambrosia artemisiifolia; conditions: 10 days, 0 to 100 scale (0 no effect, 100 complete control)
Procedure, shortened: (§2)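 Soil-applied (pre) and foliar (post, 1–2 leaf, 2–10 cm) sprays; surfactant-containing non-phytotoxic solvent vehicle; loam/sand substrate. Readout: visual % control at 10 d, greenhouse, versus untreated.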

rice = test: Test D flooded paddy test; assay type: in vivo, Oryza sativa; conditions: 250 g ai/ha, applied to paddy water, visual rating after 13 to 14 days, scale 0 to 100 (0 no effect, 100 complete control)
Procedure, shortened: (§3)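 Plants at the 2-leaf stage were grown in pots flooded to 3 cm, and compound was applied directly into the paddy water, with depth kept throughout. After 13–14 days in a greenhouse, injury was rated visually against untreated controls on a 0–100 scale (100 = complete control); a dash means not tested.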

horseweed = test: Test C postemergence; assay type: in vivo, Erigeron canadensis; conditions: 10 days, 0 to 100 scale (0 no effect, 100 complete control)
Procedure, shortened: as §2

soybean [3] = test: Test C postemergence; assay type: in vivo, Glycine max; conditions: 10 days, 0 to 100 scale (0 no effect, 100 complete control)
Procedure, shortened: as §2

sedge, umbrella = test: Test D flooded paddy test; assay type: in vivo, Cyperus difformis; conditions: 250 g ai/ha, applied to paddy water, visual rating after 13 to 14 days, scale 0 to 100 (0 no effect, 100 complete control)
Procedure, shortened: as §3

pigweed, palmer [4] = test: Test C postemergence; assay type: in vivo, Amaranthus palmeri; conditions: 10 days, 0 to 100 scale (0 no effect, 100 complete control)
Procedure, shortened: as §2

kochia [5] = test: Test C preemergence; assay type: in vivo, Bassia scoparia
Procedure, shortened: as §2

blackgrass [6] = test: Test C preemergence; assay type: in vivo, Alopecurus myosuroides
Procedure, shortened: as §2

galium = test: Test C postemergence; assay type: in vivo, Galium aparine; conditions: 10 days, 0 to 100 scale (0 no effect, 100 complete control)
Procedure, shortened: as §2

wheat [7] = test: Test C preemergence; assay type: in vivo, Triticum aestivum
Procedure, shortened: as §2

barnyardgrass [8] = test: Test C preemergence; assay type: in vivo, Echinochloa crusgalli
Procedure, shortened: as §2

foxtail, giant [9] = test: Test C postemergence; assay type: in vivo, Setaria faberi; conditions: 10 days, 0 to 100 scale (0 no effect, 100 complete control)
Description: as §1

ryegrass, Italian [10] = test: Test C preemergence; assay type: in vivo, Lolium multiflorum
Procedure, shortened: as §2

soybean [11] = test: Test C preemergence; assay type: in vivo, Glycine max
Procedure, shortened: as §2

ducksalad = test: Test D flooded paddy test; assay type: in vivo, Heteranthera limosa; conditions: 250 g ai/ha, applied to paddy water, visual rating after 13 to 14 days, scale 0 to 100 (0 no effect, 100 complete control)
Procedure, shortened: as §3

barnyardgrass [12] = test: Test D flooded paddy test; assay type: in vivo, Echinochloa crus-galli; conditions: 250 g ai/ha, applied to paddy water, visual rating after 13 to 14 days, scale 0 to 100 (0 no effect, 100 complete control)
Procedure, shortened: as §3

kochia [13] = test: Test C postemergence; assay type: in vivo, Bassia scoparia; conditions: 10 days, 0 to 100 scale (0 no effect, 100 complete control)
Procedure, shortened: as §2

corn [14] = test: Test C postemergence; assay type: in vivo, Zea mays; conditions: 10 days, 0 to 100 scale (0 no effect, 100 complete control)
Procedure, shortened: as §2

wheat [15] = test: Test C postemergence; assay type: in vivo, Triticum aestivum; conditions: 10 days, 0 to 100 scale (0 no effect, 100 complete control)
Procedure, shortened: as §2

barnyardgrass [16] = test: Test C postemergence; assay type: in vivo, Echinochloa crusgalli; conditions: 10 days, 0 to 100 scale (0 no effect, 100 complete control)
Procedure, shortened: as §2

ragweed [17] = test: Test C preemergence; assay type: in vivo, Ambrosia artemisiifolia
Procedure, shortened: as §2

oat, wild [18] = test: Test C postemergence; assay type: in vivo, Avena fatua; conditions: 10 days, 0 to 100 scale (0 no effect, 100 complete control)
Procedure, shortened: as §2

pigweed, palmer [19] = test: Test C preemergence; assay type: in vivo, Amaranthus palmeri
Procedure, shortened: as §2

blackgrass [20] = test: Test C postemergence; assay type: in vivo, Alopecurus myosuroides; conditions: 10 days, 0 to 100 scale (0 no effect, 100 complete control)
Procedure, shortened: as §2

oat, wild [21] = test: Test C preemergence; assay type: in vivo, Avena fatua
Procedure, shortened: as §2

ryegrass, Italian [22] = test: Test C postemergence; assay type: in vivo, Lolium multiflorum; conditions: 10 days, 0 to 100 scale (0 no effect, 100 complete control)
Procedure, shortened: as §2

corn [23] = test: Test C preemergence; assay type: in vivo, Zea mays
Procedure, shortened: as §2

[24] = 500 g ai/ha, preemergence, 0 to 100 scale (0 no effect, 100 complete control)
[25] = Preemergence, 125 g ai/ha, 0 to 100 scale, 0 no effect, 100 complete control

CCc1cc(C(=O)N2C[C@H](C)Oc3c(Cl)cccc32)cc(-n2cncn2)c1 [Compound 332]
Foxtail, Giant plant response rating (foxtail, giant [1]; [24]): 100 | Plant response rating, Foxtail, Giant (foxtail, giant [1]; [25]): 70 | Plant response rating, Ragweed (ragweed [2]; 500 g ai/ha, postemergence): 20 | Plant response rating, Ragweed (ragweed [2]; Postemergence, 125 g ai/ha): 0 | Plant response rating, Rice (Flood) (rice): 0 | Plant response rating, Horseweed (horseweed; 500 g ai/ha, postemergence): 0 | Plant response rating, Horseweed (horseweed; Postemergence, 125 g ai/ha): 0 | Plant response rating, Soybean (soybean [3]; 500 g ai/ha, postemergence): 100 | Plant response rating, Soybean (soybean [3]; Postemergence, 125 g ai/ha): 90 | Plant response rating, Sedge, Umbrella (Flood) (sedge, umbrella): 0 | Plant response rating, Pigweed, Palmer (pigweed, palmer [4]; 500 g ai/ha, postemergence): 70 | Plant response rating, Pigweed, Palmer (pigweed, palmer [4]; Postemergence, 125 g ai/ha): 70 | Kochia plant response rating (kochia [5]; [24]): 50 | Plant response rating, Kochia (kochia [5]; [25]): 0 | Blackgrass plant response rating (blackgrass [6]; [24]): 80 | Plant response rating, Blackgrass (blackgrass [6]; [25]): 80 | Plant response rating, Galium (galium; 500 g ai/ha, postemergence): 100 | Plant response rating, Galium (galium; Postemergence, 125 g ai/ha): 70 | Wheat plant response rating (wheat [7]; [24]): 0 | Plant response rating, Wheat (wheat [7]; [25]): 0 | Barnyardgrass plant response rating (barnyardgrass [8]; [24]): 90 | Plant response rating, Barnyardgrass (barnyardgrass [8]; [25]): 50 | Plant response rating, Foxtail, Giant (foxtail, giant [9]; 500 g ai/ha, postemergence): 90 | Plant response rating, Foxtail, Giant (foxtail, giant [9]; Postemergence, 125 g ai/ha): 40 | Ryegrass, Italian plant response rating (ryegrass, Italian [10]; [24]): 90 | Plant response rating, Ryegrass, Italian (ryegrass, Italian [10]; [25]): 60 | Soybean plant response rating (soybean [11]; [24]): 0 | Plant response rating, Soybean (soybean [11]; [25]): 0 | Plant response rating, Ducksalad (Flood) (ducksalad): 0 | Plant response rating, Barnyardgrass (Flood) (barnyardgrass [12]): 0 | Plant response rating, Kochia (kochia [13]; 500 g ai/ha, postemergence): 60 | Plant response rating, Kochia (kochia [13]; Postemergence, 125 g ai/ha): 10 | Plant response rating, Corn (corn [14]; 500 g ai/ha, postemergence): 30 | Plant response rating, Corn (corn [14]; Postemergence, 125 g ai/ha): 30 | Plant response rating, Wheat (wheat [15]; 500 g ai/ha, postemergence): 20 | Plant response rating, Wheat (wheat [15]; Postemergence, 125 g ai/ha): 20 | Plant response rating, Barnyardgrass (barnyardgrass [16]; 500 g ai/ha, postemergence): 70 | Plant response rating, Barnyardgrass (barnyardgrass [16]; Postemergence, 125 g ai/ha): 40 | Ragweed plant response rating (ragweed [17]; [24]): 0 | Plant response rating, Ragweed (ragweed [17]; [25]): 0 | Plant response rating, Oat, Wild (oat, wild [18]; 500 g ai/ha, postemergence): 30 | Plant response rating, Oat, Wild (oat, wild [18]; Postemergence, 125 g ai/ha): 10 | Pigweed, Palmer plant response rating (pigweed, palmer [19]; [24]): 100 | Plant response rating, Pigweed, Palmer (pigweed, palmer [19]; [25]): 20 | Plant response rating, Blackgrass (blackgrass [20]; 500 g ai/ha, postemergence): 70 | Plant response rating, Blackgrass (blackgrass [20]; Postemergence, 125 g ai/ha): 30 | Oat, Wild plant response rating (oat, wild [21]; [24]): 30 | Plant response rating, Oat, Wild (oat, wild [21]; [25]): 30 | Plant response rating, Ryegrass, Italian (ryegrass, Italian [22]; 500 g ai/ha, postemergence): 70 | Plant response rating, Ryegrass, Italian (ryegrass, Italian [22]; Postemergence, 125 g ai/ha): 60 | Corn plant response rating (corn [23]; [24]): 20 | Plant response rating, Corn (corn [23]; [25]): 20
